Measured values published in EP0662819B1, “AN ANTIVIRALLY ACTIVE PHARMACEUTICAL OIL-IN-WATER EMULSION CONTAINING 9-[(2-HYDROXYETHOXY)METHYL]GUANINE (ACYCLOVIR) OR A SALT OR ESTER THEREOF” (A/S GEA Farmaceutisk Fabrik, priority 1992, dated 1994).
≈ marks a conversion by molar mass, not a printed value.

Experiment: Solubility of acyclovir in glycerol formal/water and glycerol formal/propylene glycol/water mixtures
Format: physicochemical
Details: room temperature
Protocol: A surplus of acyclovir is added to glycerol formal/water mixtures and glycerol formal/propylene glycol/water mixtures at room temperature, and the mixtures are then stirred for 2 hours and filtered. Subsequent to adequate dilution with 0.1 N NaOH the solutions are spectrophotometrically measured at 260 nm against 0.1 N NaOH. A 0.01% solution of acyclovir in 0.1 N NaOH is used as standard.

Nc1nc2c(ncn2COCCO)c(=O)[nH]1 [acyclovir, 9-[(2-hydroxyethoxy)methyl]guanine]
solubility at 2 h (0 percent by volume glycerol formal in water, stirred 2 hours): 1170 µg/mL (≈ 5.2 mM)
solubility at 2 h (10% glycerol formal in water, organic solvent or mixture, 10 percent by volume glycerol formal in water, stirred 2 hours): 1630 µg/mL (≈ 7.24 mM)
solubility at 2 h (25% glycerol formal in water, organic solvent or mixture, 25 percent by volume glycerol formal in water, stirred 2 hours): 2640 µg/mL (≈ 11.7 mM)
solubility at 2 h (50% glycerol formal in water, organic solvent or mixture, 50 percent by volume glycerol formal in water, stirred 2 hours): 4370 µg/mL (≈ 19.4 mM)
solubility at 2 h (60% glycerol formal in water, organic solvent or mixture, 60 percent by volume glycerol formal in water, stirred 2 hours): 4670 µg/mL (≈ 20.7 mM)
solubility at 2 h (75% glycerol formal in water, organic solvent or mixture, 75 percent by volume glycerol formal in water, stirred 2 hours): 4150 µg/mL (≈ 18.4 mM)
solubility at 2 h (90% glycerol formal in water, organic solvent or mixture, 90 percent by volume glycerol formal in water, stirred 2 hours): 2970 µg/mL (≈ 13.2 mM)
solubility at 2 h (glycerol formal/water 40/20, organic solvent or mixture, Glycerol formal/propylene glycol/water 40/0/20 g/g/ml): 5730 µg/mL (≈ 25.4 mM)
solubility at 2 h (organic solvent or mixture, 100 percent by volume glycerol formal, stirred 2 hours): 3270 µg/mL (≈ 14.5 mM)
solubility at 2 h (organic solvent or mixture, Glycerol formal/propylene glycol/water 11/29/20 g/g/ml): 4710 µg/mL (≈ 20.9 mM)
solubility at 2 h (organic solvent or mixture, Glycerol formal/propylene glycol/water 20/20/20 g/g/ml): 4600 µg/mL (≈ 20.4 mM)
solubility at 2 h (organic solvent or mixture, Glycerol formal/propylene glycol/water 30/10/20 g/g/ml): 5200 µg/mL (≈ 23.1 mM)
solubility at 2 h (propylene glycol/water 40/20, organic solvent or mixture, Glycerol formal/propylene glycol/water 0/40/20 g/g/ml): 3440 µg/mL (≈ 15.3 mM)
